Row | SMILES | melting point
1 | O=S1(=O)N=C(c2nc(Cc3ccc(F)cc3)c3ccccc3c2O)c2cccc(N3CCOCC3)c21 | 259 to 261 °C
2 | O=S1(=O)N=C(c2nc(Cc3ccc(F)cc3)c3ccccc3c2O)c2cccc(-c3ccc(F)cc3)c21 | > 275 °C
3 | CS(=O)(=O)Nc1cccc(-c2cccc3c2S(=O)(=O)N=C3c2nc(Cc3ccc(F)cc3)c3ccccc3c2O)c1 | > 275 °C
4 | Cc1ccc2c(Cc3ccc(F)cc3)nc(C3=NS(=O)(=O)c4ccccc43)c(O)c2c1 | > 275 °C
5 | CN(c1ccc(F)cc1)c1nc(C2=NS(=O)(=O)c3ccccc32)c(O)c2ccccc12 | 215 to 217 °C
6 | O=S1(=O)N=C(c2nc(NCC3CC3)c3ccccc3c2O)c2ccccc21 | 270 to 272 °C
7 | CC(C)(C)[C@H]1C(O)=C(C2=NS(=O)(=O)c3ccccc32)C(=O)N1Cc1cccs1 | 105 to 123 °C
8 | CC[C@H](C)[C@H]1C(O)=C(C2=NS(=O)(=O)c3ccccc32)C(=O)N1Cc1ccc(F)cc1 | 155 to 160 °C
9 | CC(C)C[C@H]1C(O)=C(C2=NS(=O)(=O)c3ccccc32)C(=O)N1Cc1ccc(F)cc1 | 200 °C (dec.)
10 | CC(C)(C)[C@H]1C(O)=C(C2=NS(=O)(=O)c3ccccc32)C(=O)N1Cc1ccccc1 | 170 to 179 °C
11 | CC(C)(C)[C@H]1C(O)=C(C2=NS(=O)(=O)c3ccccc32)C(=O)N1Cc1ccc(F)c(C#N)c1 | 105 to 112 °C
12 | CC(C)(C)[C@H]1C(O)=C(C2=NS(=O)(=O)c3ccccc32)C(=O)N1Cc1ccc(=O)[nH]c1 | 149 to 190 °C
13 | CC(C)(C)[C@H]1C(O)=C(C2=NS(=O)(=O)c3c2cccc3-c2cccnc2)C(=O)N1Cc1ccc(F)cc1 | > 275 °C
14 | COc1ccc(-c2cccc3c2S(=O)(=O)N=C3C2=C(O)[C@H](C(C)(C)C)N(Cc3ccc(F)cc3)C2=O)cn1 | 185 to 190 °C
15 | CC(=O)Nc1cccc(-c2cccc3c2S(=O)(=O)N=C3C2=C(O)[C@H](C(C)(C)C)N(Cc3ccc(F)cc3)C2=O)c1 | 255 to 260 °C
16 | CC(C)(C)[C@H]1C(O)=C(C2=NS(=O)(=O)c3c(CNS(=O)(=O)N4CCCC4)cccc32)C(=O)N1Cc1ccc(F)cc1 | 112 to 125 °C
17 | CC(C)(C)[C@H]1C(O)=C(C2=NS(=O)(=O)c3c2cccc3-c2cncnc2)C(=O)N1Cc1ccc(F)cc1 | > 250 °C
18 | CC(C)(C)[C@H]1C(O)=C(C2=NS(=O)(=O)c3c2cccc3-c2cccc(=O)[nH]2)C(=O)N1Cc1ccc(F)cc1 | > 250 °C
19 | CCc1cc(CN2C(=O)C(C3=NS(=O)(=O)c4ccccc43)=C(O)[C@@H]2C(C)(C)C)ccc1F | 205 to 210 °C
20 | CC(C)(C)[C@H]1C(O)=C(C2=NS(=O)(=O)c3c(N)cccc32)C(=O)N1Cc1ccc(F)cc1 | 155 to 160 °C
21 | CC(C)(C)[C@H]1C(O)=C(C2=NS(=O)(=O)c3c(NCC(N)=O)cccc32)C(=O)N1Cc1ccc(F)cc1.N | > 250 °C
22 | CC(C)(C)[C@H]1C(O)=C(C2=NS(=O)(=O)c3c2ccc2ccccc32)C(=O)N1Cc1ccc(F)cc1 | 205 °C (dec.)
23 | CS(=O)(=O)NCc1cccc2c1S(=O)(=O)N=C2C1=C(O)[C@H](C2CCCCC2)N(Cc2ccc(F)cc2)C1=O | 130 to 137 °C
24 | Cc1cc(CN2C(=O)C(C3=NS(=O)(=O)c4c(CNS(C)(=O)=O)cccc43)=C(O)C2c2ccc(F)cc2)ccc1F (centres unmarked) | > 250 °C
25 | CNC(=O)NCc1cccc2c1S(=O)(=O)N=C2C1=C(O)[C@H](C(C)(C)C)N(Cc2ccc(F)cc2)C1=O | > 250 °C
26 | CC(C)(C)[C@H]1C(O)=C(C2=NS(=O)(=O)c3c(CS(N)(=O)=O)cccc32)C(=O)N1Cc1ccc(F)cc1 | 159 to 173 °C
27 | CN(C)S(=O)(=O)N(C)Cc1cccc2c1S(=O)(=O)N=C2C1=C(O)[C@H](C(C)(C)C)N(Cc2ccc(F)cc2)C1=O | 109 to 115 °C
28 | Cc1ccc(CN2C(=O)C(C3=NS(=O)(=O)c4ccccc43)=C(O)[C@@H]2C(C)(C)C)cc1 | 93 to 107 °C
29 | CC(=O)N1CCN(S(=O)(=O)NCc2cccc3c2S(=O)(=O)N=C3C2=C(O)[C@H](C(C)(C)C)N(Cc3ccc(F)cc3)C2=O)CC1 | 248 to 260 °C
